What all share (format): cell-based
The test system of assay [1] is Oocyte. Put plainly: Inhibition of human aquaporin 4 M23 isoform expressed in Xenopus laevis oocytes at 20 uM.
A short description of assay [2]: (§1) Inhibition of human aquaporin 4 M23 isoform expressed in Xenopus laevis oocytes. The note with it: oocyte.
Assay [3] relates to Oocyte. Described as §1.

Experimental findings from ChEMBL document CHEMBL1151776, “Identification of aquaporin 4 inhibitors using in vitro and in silico methods” (Bioorg Med Chem, 2009) are described below.

As usually defined, the inhibition is the relative decrease from the control value, in per cent. In turn, `COc1ccccc1OCC(O)CO` (centres undefined) gave an inhibition in assay [1] of 34%.

In assay [1], `O=C(Nc1ccccc1)c1cccnc1` gave an inhibition of 26%.

For `N[C@@H]1CONC1=O`, the inhibition in assay [1] was determined as 3%.

As a reminder, the IC50 is the concentration that inhibits the measured activity by half. Take `O=C(Nc1nncs1)c1cccnc1`: in assay [2], half-maximal inhibition (IC50) required 3.1 µM. Further, the Imax in assay [3] turned out to be 73%. The compound also had an inhibition in assay [1] of 67%.

In assay [1], `NS(=O)(=O)c1cc(Cl)sc1Cl` gave an inhibition of 11%.

In assay [1], `CCCC(C)C1(CC)C(=O)NC(=O)NC1=O` (centres undefined) showed an inhibition of 9%.

In assay [2], `CN(C)CCc1c[nH]c2ccc(Cn3cncn3)cc12` [RIZATRIPTAN] came in with a half-maximal inhibitory concentration (IC50) of 2.9 µM. Besides, the Imax in assay [3] is 54%. Besides, the inhibition in assay [1] amounted to 52%.

Take `CC(C)NC[C@H](O)COc1cccc2ccccc12`: in assay [1], the inhibition was found to be 26%.

In turn, `CNS(=O)(=O)Cc1ccc2[nH]cc(CCN(C)C)c2c1` [SUMATRIPTAN] returned an IC50 in assay [2] of 11 µM. This compound also had an Imax in assay [3] of 52%. This compound registered an inhibition in assay [1] of 54%.

The compound `CN1CCc2cccc3c2[C@H]1Cc1ccc(O)c(O)c1-3` registered an inhibition in assay [1] of 40%.

The compound `OCC(O)COCc1ccccc1` (centres undefined) gave an inhibition in assay [1] of 11%.

As for `O=S(=O)(Cc1ccccc1)Nc1nccs1`, the inhibition in assay [1] turned out to be 45%.

On to `O=C(Nc1nccs1)c1cccnc1`, for which the inhibition in assay [1] came out at 30%.

Compound `Oc1cnc(Nc2nc3ccccc3o2)[nH]1` yielded an inhibition in assay [1] of 44%.

As to `NC(=O)NCCC[C@H](N)C(=O)O`, the inhibition in assay [1] was found to be 0%.

As to `CC/C(=C(\c1ccccc1)c1ccc(OCCN(C)C)cc1)c1ccccc1`, the inhibition in assay [1] amounted to 71%.

`NS(=O)(=O)c1ccc(Cl)s1`: in assay [1], the inhibition is 18%.

`NC(=O)c1nc[nH]c1C(N)=O` came in with an inhibition in assay [1] of 23%.
